Reference: article PMC9150102 (Journal of Medicinal Chemistry, 2022)

Key:
[1] = molecular target: T1, Na^+/K^+ ATPase-alpha1 isoform purified from dog kidneys (Canis lupus familiaris, UniProt P50997); experiment: Na+/K+ ATPase activity inhibition, purified dog kidney enzyme (32P-ATP hydrolysis); assay type: biochemical
T1 construct: excised from 1–3-year-old male beagle dogs; from tissue; host or cells: dog (beagle) kidney outer medulla, Jørgensen purification
Method: Compounds were tested in a concentration range from 10^–9 to 10^–4 M on a purified renal Na^+/K^+ ATPase preparation with a specific activity of 14 μmol/min/mg protein.
Figure 2 Na^+/K^+ ATPase activity inhibition in a dog purified enzyme preparation. All compounds were tested in a concentration range from 10^–9 to 10^–4 M in comparison to ouabain.
The inhibitory effect of compounds was tested at multiple concentrations on Na^+/K^+ ATPase-alpha1 isoform purified from dog kidneys. […]
Renal Na+/K+ ATPase purification and activity
Purification of renal Na+/K+ ATPase was performed according to the method of Jørgensen2. Kidneys were excised from 1–3-year-old male beagle dogs, obtained from the General Pharmacology Department of Sigma-tau, Pomezia, Italy, under pentobarbital anesthesia. Kidneys were sliced and the outer medulla was dissected, pooled and suspended (1g in 10 ml) in a sucrose-histidine solution, containing 250 mM sucrose, 30 mM histidine and 5 mM EDTA, pH 7.2 and homogenized. The homogenate was centrifuged at 6,000 g for 15 min, the supernatant was decanted and centrifuged at 48,000 g for 30 min. The pellet was suspended in the sucrose-histidine buffer and incubated for 20 min with a sodium-dodecyl-sulphate (SDS) solution, dissolved in a gradient buffer, containing 25 mM imidazole and 1 mM EDTA, pH 7.5. The sample was layered on the top of a sucrose discontinuous gradient (10, 15 and 29.4%) and centrifuged at 60,000 g for 115 min. The final pellet was suspended in the gradient buffer.
Na+/K+ ATPase activity was assayed by measuring 32P-ATP hydrolysis, as previously described3.
Increasing concentrations of the standard ouabain, or tested compound, were incubated with 0.3 μg of purified dog kidney enzyme for 10 min at 37°C in 120 μl final volume of a medium, containing 140 mM NaCl, 3 mM MgCl2, 50 mM Hepes-Tris, 3 mM ATP, pH 7.5. Then, 10 μl of incubation solution containing 10 mM KCl and 20 nCi of 32P-ATP (3-10 Ci/mmol, Perkin Elmer) were added, the reaction continued for 15 min at 37°C and was stopped by acidification with 20% ice-cold perchloric acid.
32P was separated by centrifugation with activated Charcoal (Norit A, Serva) and the radioactivity was measured. Effects of increasing concentrations of the tested compound were compared to ouabain, as positive standard, and to vehicle (control) at 37°C. The inhibitory activity was expressed as percent of activity in control. The concentration of compound causing 50% inhibition of the Na+/K+ ATPase activity (IC50) was calculated by non-linear fitting of data points (KaleidagraphTM, Sinergy Software). […]

SERCA2a = molecular target: T2, SERCA2a (Rattus norvegicus, UniProt P11507); experiment: SERCA2a ATPase activity in cardiac SR homogenates from healthy rats; assay type: biochemical
T2 construct: tissues from healthy and STZ rats were homogenized; from tissue; host or cells: Sprague Dawley rat left ventricle homogenates (healthy or STZ-diabetic)
T2 sequence (P11507 1-997 isoform P11507-2): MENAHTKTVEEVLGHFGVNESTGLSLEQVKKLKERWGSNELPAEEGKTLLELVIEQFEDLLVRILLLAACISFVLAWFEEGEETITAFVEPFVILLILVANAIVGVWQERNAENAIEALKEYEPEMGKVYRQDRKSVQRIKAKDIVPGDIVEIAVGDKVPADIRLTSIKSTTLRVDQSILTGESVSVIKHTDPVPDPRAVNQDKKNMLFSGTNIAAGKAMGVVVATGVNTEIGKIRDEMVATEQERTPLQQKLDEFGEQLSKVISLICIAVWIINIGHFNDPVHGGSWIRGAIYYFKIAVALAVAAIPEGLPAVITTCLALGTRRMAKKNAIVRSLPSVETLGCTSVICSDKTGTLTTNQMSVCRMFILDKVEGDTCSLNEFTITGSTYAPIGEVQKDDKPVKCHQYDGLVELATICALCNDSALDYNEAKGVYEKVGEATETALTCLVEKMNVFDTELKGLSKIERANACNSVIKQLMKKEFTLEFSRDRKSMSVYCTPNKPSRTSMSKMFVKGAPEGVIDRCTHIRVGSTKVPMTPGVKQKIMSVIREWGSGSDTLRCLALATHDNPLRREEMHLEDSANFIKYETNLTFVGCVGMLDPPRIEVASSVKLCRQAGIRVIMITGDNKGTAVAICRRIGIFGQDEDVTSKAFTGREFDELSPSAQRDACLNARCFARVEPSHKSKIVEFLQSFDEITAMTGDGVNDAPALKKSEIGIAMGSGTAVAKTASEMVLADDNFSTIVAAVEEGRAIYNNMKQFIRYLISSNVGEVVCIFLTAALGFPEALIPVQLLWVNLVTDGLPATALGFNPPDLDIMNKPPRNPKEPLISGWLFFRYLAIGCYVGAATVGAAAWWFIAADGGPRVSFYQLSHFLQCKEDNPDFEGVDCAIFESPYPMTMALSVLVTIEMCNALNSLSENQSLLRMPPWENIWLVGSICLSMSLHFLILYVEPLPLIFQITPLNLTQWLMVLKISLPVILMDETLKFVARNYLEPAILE
Method: Measurements were performed in cardiac SR microsomes (guinea pig) and in whole tissue homogenates (rat). Cardiac preparations included SERCA2a and PLN. To test for PLN involvement in the effect of compounds, SERCA1 activity was measured in PLN-free microsomes (from guinea pig skeletal muscle) before and after reconstitution with the synthetic PLN1–32 inhibitory fragment at a ratio of 300:1 for PLN/SERCA. […] Either an increase in Vmax (rat) or a decrease in KdCa (increased Ca^2+ affinity) (guinea pig) stands for enhancement of SERCA function. […]
Left ventricles (LV) were dissected from rat and guinea -pig of healthy and failing preparations and frozen until use. Tissues were homogenized, subjected to centrifugation to obtain SR -enriched microsomes and sarcomeric proteins were extracted, as previously described 4. […]
In the case of rat hearts, cardiac homogenates were used to have sufficient material to replicate the experiments within a single animal. Hearts were excised from rats eight weeks after STZ injection. LV tissues from healthy and STZ rats were homogenized (1 g in 4 ml buffer) in a medium containing 300 mM sucrose, 50 mM K-phosphate, 10 mM NaF, 0.3 mM PMSF, 0.5 mM DTT, pH 7, and centrifuged at 35,000 g for 30 min. The final pellet was resuspended in the same buffer.
SERCA2a ATPase activity was measured as the rate of 32P-ATP release at multiple Ca2+ concentrations (100-2000 nM) in the absence and presence of tested compounds, as previously described5. Increasing concentrations of each compound were pre-incubated with 2 μg of cardiac preparations for 5 min at 4° C in 80 μl of a solution containing 100 mM KCl, 5 mM MgCl2, 1 μM A23187, 20 mM Tris, pH 7.5. Then, 20 μl of 5 mM Tris-ATP containing 50 nCi of 32P-ATP (3-10 Ci/mmol, Perkin Elmer) were added. The ATP hydrolysis was continued for 15 min at 37°C and the reaction was stopped by acidification with 100 μl of 20% ice-cold perchloric acid. 32P was separated by centrifugation with activated charcoal (Norit A, Serva) and the radioactivity was measured. SERCA2a-dependent ATPase activity was identified as the portion of total hydrolytic activity inhibited by cyclopiazonic acid (CPA, 10 µM). Technical replicates were used to ensure the reliability of single values. […]

[2] = system: SR Ca^2+ uptake in STZ cardiomyocytes; experiment: SR loading protocol (SR Ca2+ uptake under NCX inhibition) in patch-clamped STZ myocytes; assay type: cell-based, rat; details: 1 μM
[3] = Acute toxicity (LD50) in mice; details: male, Albino Swiss CD-1, mouse, in vivo
Method: Acute toxicity (LD50) was preliminarily evaluated in mice following i.v. and oral drug administration.
Control animals received the vehicle only.
Drug toxicity studies in mice
Acute toxicity was determined in CD1 mice. Separate mice groups were either orally treated, or
intravenously injected, with increasing doses of the tested substance to identify the dose causing 50%
mortality (LD50). Acute mortality was assessed at 30 min after compound administration; survival was

SMILES | IC50 [1] [µM] | SERCA2a KdCa (SERCA2a; Cpd 100 nM) [nM] | SERCA2a Vmax (µmol/min/mg) (SERCA2a; Cpd 100 nM) | SERCA2a KdCa (SERCA2a; Cpd 300 nM) [nM] | SERCA2a Vmax (µmol/min/mg) (SERCA2a; Cpd 300 nM) | SERCA2a KdCa (SERCA2a; Cpd 500 nM) [nM] | SERCA2a Vmax (µmol/min/mg) (SERCA2a; Cpd 500 nM) | SERCA2a KdCa (SERCA2a; Cpd 1000 nM) [nM] | SERCA2a Vmax (µmol/min/mg) (SERCA2a; Cpd 1000 nM) | Ca2+ transient (CaT) decay time constant [2] | CaT amplitude [2] | excitation release (ER) gain [2] | LD50 at 24 h ([3]; iv) [mg/kg] | LD50 at 24 h ([3]; po) [mg/kg]
C[C@]12CC[C@H](CC(=O)O)C[C@@H]1[C@@H](O)C[C@@H]1[C@@H]2CC[C@]2(C)C(=O)CC[C@@H]12 [Compound 8] | > 100 | 214 ± 17 | 0,344 ± 0,038 µmol/min/mg | 210 ± 13 | 0,366 ± 0,027 µmol/min/mg | 260 ± 35 | 0,313 ± 0,028 µmol/min/mg | 273 ± 32 | 0,320 ± 0,020 µmol/min/mg |  |  |  |  | 
C[C@]12CC[C@H](CCCC(=O)O)C[C@@H]1[C@@H](O)C[C@@H]1[C@@H]2CC[C@]2(C)C(=O)CC[C@@H]12 [Compound 5] | > 100 | 221 ± 24 | 0,371 ± 0,021 µmol/min/mg | 221 ± 21 | 0,384 ± 0,023 µmol/min/mg | 220 ± 24 | 0,374 ± 0,031 µmol/min/mg | 219 ± 32 | 0,377 ± 0,029 µmol/min/mg | sharply accelerated Ca^2+ transient (CaT) decay | not significantly affected | increased excitation release (ER) gain | 300 | > 800
